Tested on: KRAS PDC multicell spheroid viability
Test: Anticancer human tumor 521955-158-R6-J3-PDC patient-derived pancreatic carcinoma cell line growth inhibition [KRAS2]
Settings: for IC50: curve of first compound; for viability, T/C: stronger effect = lower value
How it was run: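 KRAS-mutant tumor cells were grown as spheroids with HUVEC endothelial cells and human MSCs as stroma. Targeted agents were tested alone and with KRAS pathway inhibitors. Doses started at or near clinical Cmax, or 10 microM, descending half-log.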

[1] = second compound 0.1 µM, first compound 0.0316 µM
[2] = second compound 0.1 µM, first compound 0.1 µM
[3] = second compound 0.1 µM, first compound 0.316 µM
[4] = second compound 0.1 µM, first compound 1 µM
[5] = second compound 0.1 µM, first compound 3.16 µM
[6] = second compound 0.1 µM, first compound 10 µM
[7] = second compound 0.316 µM, first compound 0.0316 µM
[8] = second compound 0.316 µM, first compound 0.1 µM
[9] = second compound 0.316 µM, first compound 0.316 µM
[10] = second compound 0.316 µM, first compound 1 µM
[11] = second compound 0.316 µM, first compound 3.16 µM
[12] = second compound 0.316 µM, first compound 10 µM
[13] = second compound 1 µM, first compound 0.0316 µM
[14] = second compound 1 µM, first compound 0.1 µM
[15] = second compound 1 µM, first compound 0.316 µM
[16] = second compound 1 µM, first compound 1 µM
[17] = second compound 1 µM, first compound 3.16 µM
[18] = second compound 1 µM, first compound 10 µM
[19] = second compound 3.16 µM, first compound 0.0316 µM
[20] = second compound 3.16 µM, first compound 0.1 µM
[21] = second compound 3.16 µM, first compound 0.316 µM
[22] = second compound 3.16 µM, first compound 1 µM
[23] = second compound 3.16 µM, first compound 3.16 µM
[24] = second compound 3.16 µM, first compound 10 µM
[25] = second compound 10 µM, first compound 0.0316 µM
[26] = second compound 10 µM, first compound 0.1 µM
[27] = second compound 10 µM, first compound 0.316 µM
[28] = second compound 10 µM, first compound 1 µM
[29] = second compound 10 µM, first compound 3.16 µM
[30] = second compound 10 µM, first compound 10 µM
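Further: drug exposure lasted seven days.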
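Wherever viability, T/C is given: 100% = DMSO vehicle wells and lower means fewer viable cells.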

COc1cc(Nc2ncc3c(n2)-c2ccc(Cl)cc2C(c2c(F)cccc2OC)=NC3)ccc1C(=O)O + COc1cc2nc(C)nc(NC(C)c3cc(N)cc(C(F)(F)F)c3)c2cc1OC1CCOC1
IC50 (second compound 0.1 µM): > 10 µM
IC50 (second compound 0.316 µM): > 10 µM
IC50 (second compound 1 µM): > 10 µM
IC50 (second compound 3.16 µM): > 10 µM
IC50 (second compound 10 µM): < 0.0316 µM
viability, T/C [1]: 102%
viability, T/C [2]: 88.3%
viability, T/C [3]: 89%
viability, T/C [4]: 88.9%
viability, T/C [5]: 97.1%
viability, T/C [6]: 90.4%
viability, T/C [7]: 93.4%
viability, T/C [8]: 86.3%
viability, T/C [9]: 87.4%
viability, T/C [10]: 99.2%
viability, T/C [11]: 96.8%
viability, T/C [12]: 88.6%
viability, T/C [13]: 80.7%
viability, T/C [14]: 84.4%
viability, T/C [15]: 87.7%
viability, T/C [16]: 89.3%
viability, T/C [17]: 95.3%
viability, T/C [18]: 83.4%
viability, T/C [19]: 76%
viability, T/C [20]: 72.5%
viability, T/C [21]: 82.1%
viability, T/C [22]: 78.5%
viability, T/C [23]: 80.6%
viability, T/C [24]: 71.2%
viability, T/C [25]: 68.9%
viability, T/C [26]: 23.1%
viability, T/C [27]: 30%
viability, T/C [28]: 31.2%
viability, T/C [29]: 56.8%
viability, T/C [30]: 23%

COc1cc2nccc(Oc3ccc(NC(=O)C4(C(=O)Nc5ccc(F)cc5)CC4)cc3)c2cc1OC + COc1cc2nc(C)nc(NC(C)c3cc(N)cc(C(F)(F)F)c3)c2cc1OC1CCOC1
IC50 (second compound 0.1 µM): > 10 µM
IC50 (second compound 0.316 µM): > 10 µM
IC50 (second compound 1 µM): > 10 µM
IC50 (second compound 3.16 µM): > 10 µM
IC50 (second compound 10 µM): < 0.0316 µM
viability, T/C [1]: 89.3%
viability, T/C [2]: 91.9%
viability, T/C [3]: 78.7%
viability, T/C [4]: 91.3%
viability, T/C [5]: 101%
viability, T/C [6]: 90.2%
viability, T/C [7]: 93.3%
viability, T/C [8]: 97.2%
viability, T/C [9]: 90.1%
viability, T/C [10]: 90.9%
viability, T/C [11]: 97.5%
viability, T/C [12]: 95.2%
viability, T/C [13]: 79.8%
viability, T/C [14]: 84.4%
viability, T/C [15]: 83.5%
viability, T/C [16]: 88.1%
viability, T/C [17]: 103%
viability, T/C [18]: 78.7%
viability, T/C [19]: 70.5%
viability, T/C [20]: 73.9%
viability, T/C [21]: 70.8%
viability, T/C [22]: 72.8%
viability, T/C [23]: 89.5%
viability, T/C [24]: 53.6%
viability, T/C [25]: 49.1%
viability, T/C [26]: 11.8%
viability, T/C [27]: 18.1%
viability, T/C [28]: 27.6%
viability, T/C [29]: 2.28%
viability, T/C [30]: 1.88%

O=C(c1cc(Cc2n[nH]c(=O)c3ccccc23)ccc1F)N1CCN(C(=O)C2CC2)CC1 + COc1cc2nc(C)nc(NC(C)c3cc(N)cc(C(F)(F)F)c3)c2cc1OC1CCOC1
IC50 (second compound 0.1 µM): > 10 µM
IC50 (second compound 0.316 µM): > 10 µM
IC50 (second compound 1 µM): > 10 µM
IC50 (second compound 3.16 µM): > 10 µM
IC50 (second compound 10 µM): > 10 µM
viability, T/C [1]: 82.4%
viability, T/C [2]: 76.4%
viability, T/C [3]: 86.1%
viability, T/C [4]: 75.5%
viability, T/C [5]: 69.2%
viability, T/C [6]: 80.2%
viability, T/C [7]: 88.9%
viability, T/C [8]: 88.8%
viability, T/C [9]: 80.5%
viability, T/C [10]: 70.5%
viability, T/C [11]: 67.1%
viability, T/C [12]: 77.7%
viability, T/C [13]: 90.9%
viability, T/C [14]: 88.3%
viability, T/C [15]: 97.1%
viability, T/C [16]: 70.8%
viability, T/C [17]: 70.3%
viability, T/C [18]: 83.5%
viability, T/C [19]: 70.1%
viability, T/C [20]: 75.6%
viability, T/C [21]: 67.2%
viability, T/C [22]: 60.8%
viability, T/C [23]: 63.6%
viability, T/C [24]: 75.9%
viability, T/C [25]: 55.4%
viability, T/C [26]: 59.5%
viability, T/C [27]: 55.9%
viability, T/C [28]: 53.3%
viability, T/C [29]: 65.3%
viability, T/C [30]: 77.4%
